≈ marks a conversion by molar mass, not a printed value. Each block holds one molecule with its values, some of them ahead of it.
Key:
[1] = test system: LPS-activated J774.A1 cells; set-up: method as in PMID 17637182; settings: cited from earlier work
[2] = Ferric reducing antioxidant power (FRAP) assay; settings: relative to 200 µg/mL gallic acid, 700 nm
Method: (§1) Three in vitro antioxidant assays, namely, 2,2′-azinobis-(3-ethylbenzothiazoline-6-sulfonic acid (ABTS), 2,2′-diphenyl-1-picrylhydrazyl (DPPH), and ferric ion reducing antioxidant power (FRAP), were used to determine the antioxidant activity according to methods previously reported. Ascorbic acid (0 to 200 μg/mL) was used as positive control in these experiments, and Formula (1) below allowed us to evaluate the percentage of radical scavenging capacity. The inhibitory concentration (IC50) values were evaluated by plotting a nonlinear graph of percentage radical scavenging capacity versus logarithm of tested concentrations. Scavenging capacity (%) = [(A0 − A1)/A0] × 100(1) where A0 is absorbance of negative control, and A1 is absorbance of extract with ABTS^•+ radical cation.
The generally used and almost standard method for performing the FRAP test is that developed by Benzie and Strain [15]. Indeed, the antioxidant power is determined in a colorimetric reaction linked to redox in which an intense blue-colored ferroustripyridyltriazine (Fe^2+-TPTZ) complex is obtained via reduction at a low pH of ferrictripyridyltriazine (Fe^3+-TPTZ). The incubation of a quantity of 50 μL of EMME (1.56 to 200 μg/mL) or 200 μg/mL of gallic acid (Merck, Lethabong, South Africa) on a 96-well plate was carried out with 50 μL of 1% potassium ferricyanide (prepared in 0.2 M of sodium phosphate buffer, pH 6.6) for 30 min at 50 °C. Then, 50 μL of 10% trichloroacetic acid (TCA), 40 μL of distilled water, and 10 μL of 0.1% ferric chloride were added, respectively. The absorbance values were recorded on a blank (extract plus sodium phosphate buffer) at 700 nm on a SpectraMax iD3 multi-mode microplate reader (Molecular Devices, San Jose, CA, USA); the FRAP activity was indicated as inhibition percentage of 200 μg/mL of gallic acid.
(§2) The IC50 values were calculated for each biological experiment using the nonlinear regression curve of the % inhibitory activity versus the logarithm (log10) of the various tested concentrations using GraphPad Prism 6.0 software (GraphPad Software, Inc., San Diego, CA, USA). The data are shown as mean ⁱ SEM (standard error of the mean) values, and all biological experiments were conducted in triplicate (n = 3). The statistical analysis was conducted using GraphPad Prism 6.0 software (GraphPad Software, Inc., San Diego, CA, USA). One-way analysis of variance (ANOVA) was used to compare the data across the tested samples and/or controls, and Student–Newman–Keuls or Dunnett’s tests were then performed. A p-value of less than 0.05 indicated a significant difference in the results.

[3] = DPPH radical scavenging assay; settings: 30 min, 517 nm
Method: as §1
To be able to determine the DPPH^• scavenging capacity of EMME, we performed a serial dilution of 40 μL of the sample (1 mg/mL) with methanol on a 96-well microtiter plate, with 160 μL of solution of DPPH^• thereafter (25 μg/mL). The incubation at 25 °C in the dark was performed after 30 min, with the absorbance values measured at 517 nm on a SpectraMax iD3 multi-mode microplate against a blank (extract plus methanol without DPPH^•). […]. Methanol with DPPH^• served as the negative control. Using Formula (1), the DPPH scavenging capability was calculated at the measured concentrations above, and as previously enumerated, the IC50 values were also calculated, as indicated in the previously described procedure.
as §2

[4] = ABTS radical scavenging assay; settings: 5 min, 734 nm
Method: as §1
Specifically, 2.45 mM of potassium persulfate and 7 mM of ABTS solution were dissolved in methanol and combined to create the ABTS^•+ radical cation, which was stored at 25 °C for a minimum of 16 h. At 734 nm, the absorbance of the generated ABTS^•+ was measured using a SpectraMax iD3 multi-mode microplate reader (Molecular Devices, San Jose, CA, USA) and calibrated to 0.70 ± 0.02. After carefully diluting 40 μL of EMME (1 mg/mL) with methanol and adding 160 μL of (ABTS^•+) radical cation, the 96-well microtiter plate was left to sit at 25 °C in the dark for five minutes. Using a SpectraMax iD3 multi-mode microplate reader, the absorbance values were measured at 734 nm against the blank (extract plus methanol without ABTS^•+). A nonlinear curve representing the percentage of ABTS^•+ scavenging capacity vs. a logarithm of tested concentrations was then plotted to determine the inhibitory concentration (IC50) values.
as §2

[5] = test system: LPS-stimulated RAW 264.7 cells; assay: ROS production in LPS-stimulated RAW 264.7 cells (DCFH-DA); type: cell-based, murine; settings: 25, 50, 100 µg/mL, 2 h pre-treatment, 200 ng/mL LPS 24 h
Method: For ROS production inhibition, on a black/clear bottom 96-well plate, RAW 264.7 cells were seeded at a density of 10,000 cells per well. The cells were then pre-treated with non-toxic quantities of EMME and genistin (5) at 25, 50, and 100 µg/mL for two hours and then exposed to 200 ng/mL of LPS for twenty-four hours under standard culture conditions. Thereafter, the cells were washed twice with PBS, followed by the addition of 100 µL of fresh FBS-free medium containing 10 µM of the fluorescent probe 2′,7′-dichlorodihydrofluorescein diacetate (DCFH-DA) (Sigma-Aldrich, Darmstadt, Germany). After 30 min of additional incubation under usual culture conditions, PBS was added to the plate in place of the fluorescent probe. The fluorescence of the cells was measured using a SpectraMax iD3 multi-mode microplate reader (Molecular Devices, San Jose, CA, USA) at 485 nm (excitation) and 535 nm (emission). The percentage of cells treated with DMSO 0.5% without LPS, known as the negative control, was used to express the intracellular ROS levels. Using an excitation/emission filter (480/535 nm) on a 40× objective, images were taken with a camera (Flexacam C1, Leica Microsystems, Wetzlar, Germany) attached to a fluorescence microscope (Leica Microsytems GmbH, Wetzlar, Germany).

[6] = test system: LPS-stimulated RAW264.7 cells; set-up: method as in PMID 33202848, PMID 29471006; settings: cited from earlier work
soybeans 15-LOX = molecular target: T1, soybeans 15-LOX (Glycine max, UniProt P08170); assay: 15-lipoxygenase enzyme inhibitory assay (FOX); type: biochemical, soybean
T1 construct: purchased Merck, Darmstadt, Germany
T1 sequence (P08170 1-839): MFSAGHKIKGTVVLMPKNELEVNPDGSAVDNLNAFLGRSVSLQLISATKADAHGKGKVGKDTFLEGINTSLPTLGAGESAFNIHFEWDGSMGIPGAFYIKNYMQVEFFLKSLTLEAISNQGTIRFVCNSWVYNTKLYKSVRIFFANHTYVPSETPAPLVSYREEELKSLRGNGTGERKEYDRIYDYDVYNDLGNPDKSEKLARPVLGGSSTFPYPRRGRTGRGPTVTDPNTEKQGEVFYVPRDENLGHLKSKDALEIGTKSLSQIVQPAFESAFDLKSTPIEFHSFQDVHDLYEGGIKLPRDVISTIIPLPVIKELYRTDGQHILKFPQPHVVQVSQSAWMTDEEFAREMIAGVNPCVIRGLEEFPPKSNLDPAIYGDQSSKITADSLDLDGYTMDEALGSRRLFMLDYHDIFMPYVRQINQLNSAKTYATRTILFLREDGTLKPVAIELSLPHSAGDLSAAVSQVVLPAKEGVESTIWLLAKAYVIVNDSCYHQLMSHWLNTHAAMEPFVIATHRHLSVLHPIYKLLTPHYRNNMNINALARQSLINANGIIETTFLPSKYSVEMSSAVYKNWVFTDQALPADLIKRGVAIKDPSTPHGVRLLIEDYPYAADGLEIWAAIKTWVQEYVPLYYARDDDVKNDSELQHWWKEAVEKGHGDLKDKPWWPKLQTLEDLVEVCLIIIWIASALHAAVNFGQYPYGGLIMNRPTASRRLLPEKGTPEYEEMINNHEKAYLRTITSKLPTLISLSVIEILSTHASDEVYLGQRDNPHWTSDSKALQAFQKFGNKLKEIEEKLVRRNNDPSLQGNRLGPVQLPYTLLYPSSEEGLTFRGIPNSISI
Method: The method developed by Pinto et al. was used to determine the effect of the tested samples on 15-LOX inhibitory activity, with slight modifications to the 96-well microtitre plate format. Using 20 µL of tested samples at varying concentrations (3.90 to 500 µg/mL), the soybeans 15-LOX (Merck, Darmstadt, Germany) (40 µL, 200 UI/mL) were incubated at 25 °C for 5 min. The plate was then incubated at 25 °C for 20 min in the dark; after, 40 µL of linoleic acid (final concentration, 140 μM) produced in Tris-HCl buffer (50 mM, pH 7.4) was added. A total of 100 µL of the FOX reagent—sulfuric acid (30 mM), xylenol orange (100 μM), and ferrous II) sulfate (100 μM) mixed in methanol/water (9:1)—was added to terminate the test. A SpectraMax iD3 multi-mode microplate reader (Molecular Devices, San Jose, CA, USA) was used to measure the absorbance at 560 nm following 30 min of incubation at 25 °C in the dark. Gallic acid (0.78 to 100 µg/mL) was employed as the usual inhibitor of 15-LOX, while DMSO at 5% (v/v) served as the negative control. With the exception of adding the substrate after the FOX reagent, the blanks were prepared exactly like the tested samples. Formula (2) below was used to compute the 15-LOX inhibitory activity. 15 LOX inhibitory activity (%) = 100 − [(A0 − A1) − (A2 − A1)] × 100(2) where A0 is absorbance of test samples, A1 is absorbance of blank, and A2 is absorbance of negative control (DMSO 5%).
as §2

[7] = test system: LPS-stimulated RAW 264.7 cells; assay: NO production inhibition in LPS-stimulated RAW 264.7 cells (Griess); type: cell-based, murine; settings: Mus musculus, RAW264.7; RAW 264.7, 2 h pre-treatment, 500 ng/mL LPS 24 h
Method: […] in a humidified environment containing 5% CO2 and 95% air. For NO and ROS production inhibition assays, the cytotoxic effect of tested samples at 100 µg/mL after 24 h of exposure was initially measured on RAW 264.7 cells (10,000 cells per well) using the standard MTT assay. Then, for NO production inhibition assay, RAW 264.7 cells were pre-treated with tested samples at 100 µg/mL for 2 h followed by addition of culture medium containing 500 ng/mL of lipopolysaccharide (LPS) (Merck, Darmstadt, Germany). After 24 h of incubation under standard cell-culture conditions, NO released was measured in cell supernatants using the Griess reagent (Sigma Aldrich, Darmstadt, Germany), and a SpectraMax iD3 multi-mode microplate reader (Molecular Devices, San Jose, CA, USA) was used to capture the absorbance readings at 540 nm. The ability of each tested material to reduce nitric oxide synthesis by LPS-stimulated RAW 264.7 macrophages in comparison to the negative control (cells treated with DMSO at 0.5% and LPS without extract) was used to calculate the percentage of NO production inhibition.
as §2

[8] = test system: prostaglandins, iNOS, pro-inflammatory cytokines, ROS, NF-κB signaling pathway; set-up: method as in PMID 35140617, PMID 32115816; settings: down-regulation of prostaglandins; cited from earlier work

SMILES: O=c1cc(-c2ccc(O)cc2)oc2cc(O[C@@H]3O[C@H](CO)[C@@H](O)[C@H](O)[C@H]3O[C@@H]3OC[C@](O)(CO)[C@H]3O)cc(O)c12 [Apiin]
Inhibitory activity on NO production and iNOS expression [1]: significant inhibitory activity

IC50 FRAP [2]: 23.68 ± 2.89 µg/mL (≈ 134 µM)
IC50 DPPH [3]: 4.08 ± 1.04 µg/mL (≈ 23.2 µM)
IC50 ABTS [4]: 1.28 ± 0.81 µg/mL (≈ 7.27 µM)
SMILES: O=C1O[C@H]([C@@H](O)CO)C(O)=C1O [Ascorbic acid, reference compound]
Inhibition of LPS-induced ROS production [5]: significantly inhibit

SMILES: C[C@@H]1O[C@@H](O[C@H]2C(=O)c3c(O)cc(O)cc3O[C@@H]2c2ccc(O)c(O)c2)[C@H](O)[C@H](O)[C@H]1O [Astilbin]
Inhibition of IL-1β, IL-6, NO production and NF-κB-p65 expression [6]: significantly inhibiting

SMILES: O=C(O)c1cc(O)c(O)c(O)c1 [Gallic acid, reference compound]
IC50 (soybeans 15-LOX): 145 µM

IC50 [7]: 8.93 ± 0.4 µg/mL (≈ 29.5 µM)
SMILES: O=c1c(O)c(-c2ccc(O)c(O)c2)oc2cc(O)cc(O)c12 [Quercetin, reference compound]

SMILES: O=c1c(-c2ccc(O)cc2)coc2cc(O)cc(O)c12 [genistein]
Anti-inflammatory activities [8]: strong anti-inflammatory activities

From article PMC11678782, “The Antioxidant and Anti-Inflammatory Activities of the Methanolic Extract, Fractions, and Isolated Compounds from Eriosema montanum Baker f. (Fabaceae)” (Molecules, 2024)
